Measurements from publication PMC10746543, “Design principles for cyclin K molecular glue degraders” (Nature Chemical Biology, 2023).
Values joined by “and” are separate entries in the source; they are usually repeats but may differ in a detail not shown here. Equal values may be shown once. Read-outs that look alike come from different tables or passages of the source.

What was measured:
CDK13 = molecular target: T1, CDK13 (Homo sapiens, UniProt Q14004+Q16531); assay: Label-free quantitative mass spectrometry in MDA-MB-231 cells, CDK13; format: cell-based; details: for CDK13 peptide count: label-free quantitative MS, replicate values; for CDK13 peptide count (DMSO-normalised): normalised to DMSO = 1, replicate values
T1 construct: endogenous in cells; host or cells: MDA-MB-231
Method: (§1) MDA-MB-231 cells were treated with DMSO or a cyclin K degrader compound at 1 µM for 5 h. Cells were collected by centrifugation and washed with phosphate-buffered saline before snap freezing in liquid nitrogen. Cells were lysed by addition of lysis buffer (8 M urea, 50 mM NaCl, 50 mM 4-(2-hydroxyethyl)-1-piperazineethanesulfonic acid (EPPS) pH 8.5, and protease and phosphatase inhibitors) and homogenization by bead beating (BioSpec) for three repeats of 30 s at 2,400 rpm. Bradford assay was used to determine the final protein concentration in the clarified cell lysate. Then 50 µg of protein for each sample was reduced, alkylated and precipitated using methanol/chloroform as previously described, and the resulting washed precipitated protein was allowed to air dry. Precipitated protein was resuspended in 4 M urea, 50 mM HEPES pH 7.4, followed by dilution to 1 M urea with the addition of 200 mM EPPS, pH 8. Proteins were first digested with LysC (1:50; enzyme:protein) for 12 h at room temperature. The LysC digestion was diluted to 0.5 M urea with 200 mM EPPS pH 8 followed by digestion with trypsin (1:50; enzyme:protein) for 6 h at 37 °C. Sample digests were acidified with formic acid to a pH of 2–3 before desalting using C18 solid phase extraction plates (SOLA, Thermo Fisher Scientific). Desalted peptides were dried in a vacuum-centrifuged and reconstituted in 0.1% formic acid for liquid chromatography–mass spectrometry analysis.
(§2) Data were collected using a TimsTOF Pro2 (Bruker Daltonics) coupled to a nanoElute LC pump (Bruker Daltonics) via a CaptiveSpray nano-electrospray source. Peptides were separated on a reversed-phase C18 column (25 cm × 75 µm inner diameter, […], IonOpticks) containing an integrated captive spray emitter. Peptides were separated using a 50 min gradient of 2–30% buffer B (acetonitrile in 0.1% formic acid) with a flow rate of 250 nl min^−1 and column temperature maintained at 50 °C.
(§3) Data-dependent acquisition (DDA) was performed in Parallel Accumulation-Serial Fragmentation (PASEF) mode to determine effective ion mobility windows for downstream diaPASEF data collection. The ddaPASEF parameters included: 100% duty cycle using accumulation and ramp times of 50 ms each, one Trapped Ion Mobility Spectrometry(TIMS)-MS scan and ten PASEF ramps per acquisition cycle. The TIMS-MS survey scan was acquired between 100 m/z and 1,700 m/z and 1/K0 of 0.7–1.3 V s cm^−2. Precursors with one to five charges were selected, and those that reached an intensity threshold of 20,000 arbitrary units were actively excluded for 0.4 min. The quadrupole isolation width was set to 2 m/z for m/z < 700 and 3 m/z for m/z > 800, with the m/z between 700 m/z and 800 m/z being interpolated linearly. […] To perform diaPASEF, the precursor distribution in the DDA m/z-ion mobility plane was used to design an acquisition scheme for data-independent acquisition (DIA) data collection that included two windows in each 50 ms diaPASEF scan. Data were acquired using 16 of these 25 Da precursor double window scans (creating 32 windows) that covered the diagonal scan line for doubly and triply charged precursors, with singly charged precursors able to be excluded by their position in the m/z-ion mobility plane. These precursor isolation windows were defined between 400 m/z and 1,200 m/z and 1/K0 of 0.7–1.3 V s cm^−2.
(§4) DirectDIA mode includes first extracting the DIA data into a collection of MS2 spectra which are searched using Spectronaut’s Pulsar search engine. The search results are then used to generate a spectral library which is then employed for the targeted analysis of the DIA data. MS/MS spectra were searched against a Swissprot human database (January 2021). Database search criteria largely followed the default settings for directDIA including: tryptic with two missed cleavages, fixed carbomidomethylation of cysteine, and variable oxidation of methionine and acetylation of protein N-termini and precursor Q-value (FDR) cut-off of 0.01. […]

cyclin K = assay: Label-free quantitative mass spectrometry in MDA-MB-231 cells, cyclin K; format: cell-based, human; details: for cyclin K depletion, result in words: MDA-MB-231 cells, 1 µM, 5 h; for CCNK peptide count (DMSO-normalised): normalised to DMSO = 1, replicate values
Method: as §1, §2, §3, §4

CDK12–cyclin K and DDB1 = molecular target: T2, CDK12–cyclin K and DDB1 (Homo sapiens, UniProt Q16531+Q9NYV4, K965R); assay: TR-FRET ternary complex formation assay (compound titration); format: binding
T2 construct: His6–CDK12 (a.a. 713–1,052); full-length or beta-propeller B domain deletion (ΔBPB: a.a. 396–705 deleted) constructs of His6–DDB1ΔBPB, StrepII–Avi–DDB1, or His6–Spy–DDB1; made in house; host or cells: Trichoplusia ni High Five insect cells (baculovirus)
Summary of the method: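 Read-out used a 70 μs delay to cut background fluorescence; TR-FRET signal taken as the 520 nm/490 nm emission ratio.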

CDK12 = molecular target: T3, CDK12 (Homo sapiens, UniProt Q16531+Q9NYV4); assay: Label-free quantitative mass spectrometry in MDA-MB-231 cells, CDK12; format: cell-based; details: for CDK12 peptide count: label-free quantitative MS, replicate values; for CDK12 peptide count (DMSO-normalised): normalised to DMSO = 1, replicate values
T3 construct: endogenous in cells; host or cells: MDA-MB-231
Method: as §1, §2, §3, §4

[1] = individual replicates, sheet EDF7
[2] = label-free quantitative MS, replicate values
[3] = in vitro complex formation, 50 nM CDK12–cyclin K, 100 nM DDB1, text and figures, read-out: TR-FRET EC50
[4] = sheet MOESM7, read-out: log TR-FRET EC50 (converted)
[5] = source data sheet correlations, read-out: TR-FRET EC50
[6] = compound concentration 0.468 nM
[7] = compound concentration 7.92001 nM
[8] = compound concentration 15.84 nM
[9] = compound concentration 30.96 nM
[10] = compound concentration 62.6401 nM
[11] = compound concentration 125.28 nM
[12] = compound concentration 244.8 nM
[13] = compound concentration 993.601 nM
[14] = compound concentration 2001.6 nM

T1 sequence (Q14004 whole entry): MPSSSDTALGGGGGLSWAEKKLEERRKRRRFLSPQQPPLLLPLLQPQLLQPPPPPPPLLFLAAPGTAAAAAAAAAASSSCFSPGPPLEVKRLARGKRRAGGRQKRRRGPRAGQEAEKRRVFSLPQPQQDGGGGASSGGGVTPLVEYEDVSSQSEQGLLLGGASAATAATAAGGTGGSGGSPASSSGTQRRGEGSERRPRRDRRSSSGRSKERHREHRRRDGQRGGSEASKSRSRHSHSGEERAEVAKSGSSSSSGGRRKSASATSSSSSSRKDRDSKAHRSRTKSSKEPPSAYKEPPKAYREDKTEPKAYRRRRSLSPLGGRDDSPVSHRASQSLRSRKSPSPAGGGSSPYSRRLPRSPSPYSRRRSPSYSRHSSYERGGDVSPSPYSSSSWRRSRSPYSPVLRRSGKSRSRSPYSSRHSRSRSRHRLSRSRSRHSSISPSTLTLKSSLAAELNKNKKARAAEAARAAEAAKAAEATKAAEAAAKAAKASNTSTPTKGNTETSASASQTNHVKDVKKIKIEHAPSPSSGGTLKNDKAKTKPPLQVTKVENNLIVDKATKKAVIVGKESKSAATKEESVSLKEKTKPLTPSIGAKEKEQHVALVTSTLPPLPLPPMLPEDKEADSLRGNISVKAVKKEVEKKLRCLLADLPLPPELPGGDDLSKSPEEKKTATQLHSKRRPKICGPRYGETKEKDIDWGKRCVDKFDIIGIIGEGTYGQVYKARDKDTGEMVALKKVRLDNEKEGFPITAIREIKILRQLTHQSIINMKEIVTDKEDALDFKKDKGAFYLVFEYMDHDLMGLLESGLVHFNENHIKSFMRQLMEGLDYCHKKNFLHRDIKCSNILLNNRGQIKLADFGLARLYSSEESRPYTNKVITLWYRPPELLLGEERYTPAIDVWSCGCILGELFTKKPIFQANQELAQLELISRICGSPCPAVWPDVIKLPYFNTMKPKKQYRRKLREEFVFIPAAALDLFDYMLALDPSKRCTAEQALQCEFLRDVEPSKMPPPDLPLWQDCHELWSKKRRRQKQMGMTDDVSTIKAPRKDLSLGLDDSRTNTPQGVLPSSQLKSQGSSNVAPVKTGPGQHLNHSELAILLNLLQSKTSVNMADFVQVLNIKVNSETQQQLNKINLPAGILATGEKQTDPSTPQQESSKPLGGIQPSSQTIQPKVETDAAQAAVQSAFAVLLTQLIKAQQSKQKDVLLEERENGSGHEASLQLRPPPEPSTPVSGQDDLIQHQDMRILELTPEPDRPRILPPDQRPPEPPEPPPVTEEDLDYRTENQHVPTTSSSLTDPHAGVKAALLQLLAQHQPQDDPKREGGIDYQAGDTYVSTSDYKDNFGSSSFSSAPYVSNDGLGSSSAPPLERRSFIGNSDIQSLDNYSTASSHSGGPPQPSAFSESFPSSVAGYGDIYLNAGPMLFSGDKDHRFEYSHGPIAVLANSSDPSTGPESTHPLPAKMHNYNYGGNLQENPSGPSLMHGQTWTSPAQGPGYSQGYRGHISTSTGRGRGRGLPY
T1 sequence (O75909 whole entry partner): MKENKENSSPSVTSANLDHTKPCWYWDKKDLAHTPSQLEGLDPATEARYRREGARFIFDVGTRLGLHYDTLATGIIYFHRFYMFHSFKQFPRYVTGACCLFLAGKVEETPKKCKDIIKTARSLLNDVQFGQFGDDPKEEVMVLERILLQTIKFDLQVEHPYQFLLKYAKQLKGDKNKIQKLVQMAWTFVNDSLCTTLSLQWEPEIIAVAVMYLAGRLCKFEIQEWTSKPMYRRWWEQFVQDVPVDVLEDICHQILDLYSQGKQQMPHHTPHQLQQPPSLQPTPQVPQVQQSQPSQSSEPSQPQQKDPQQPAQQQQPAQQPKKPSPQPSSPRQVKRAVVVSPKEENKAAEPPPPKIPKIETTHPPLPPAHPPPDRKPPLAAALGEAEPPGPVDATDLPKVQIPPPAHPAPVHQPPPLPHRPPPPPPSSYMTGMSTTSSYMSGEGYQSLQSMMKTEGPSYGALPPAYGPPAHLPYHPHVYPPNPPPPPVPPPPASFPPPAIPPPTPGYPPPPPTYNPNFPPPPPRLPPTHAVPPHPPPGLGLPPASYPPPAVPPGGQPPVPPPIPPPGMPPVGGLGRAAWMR
T1 sequence (Q16531 2-1140 limits assumed): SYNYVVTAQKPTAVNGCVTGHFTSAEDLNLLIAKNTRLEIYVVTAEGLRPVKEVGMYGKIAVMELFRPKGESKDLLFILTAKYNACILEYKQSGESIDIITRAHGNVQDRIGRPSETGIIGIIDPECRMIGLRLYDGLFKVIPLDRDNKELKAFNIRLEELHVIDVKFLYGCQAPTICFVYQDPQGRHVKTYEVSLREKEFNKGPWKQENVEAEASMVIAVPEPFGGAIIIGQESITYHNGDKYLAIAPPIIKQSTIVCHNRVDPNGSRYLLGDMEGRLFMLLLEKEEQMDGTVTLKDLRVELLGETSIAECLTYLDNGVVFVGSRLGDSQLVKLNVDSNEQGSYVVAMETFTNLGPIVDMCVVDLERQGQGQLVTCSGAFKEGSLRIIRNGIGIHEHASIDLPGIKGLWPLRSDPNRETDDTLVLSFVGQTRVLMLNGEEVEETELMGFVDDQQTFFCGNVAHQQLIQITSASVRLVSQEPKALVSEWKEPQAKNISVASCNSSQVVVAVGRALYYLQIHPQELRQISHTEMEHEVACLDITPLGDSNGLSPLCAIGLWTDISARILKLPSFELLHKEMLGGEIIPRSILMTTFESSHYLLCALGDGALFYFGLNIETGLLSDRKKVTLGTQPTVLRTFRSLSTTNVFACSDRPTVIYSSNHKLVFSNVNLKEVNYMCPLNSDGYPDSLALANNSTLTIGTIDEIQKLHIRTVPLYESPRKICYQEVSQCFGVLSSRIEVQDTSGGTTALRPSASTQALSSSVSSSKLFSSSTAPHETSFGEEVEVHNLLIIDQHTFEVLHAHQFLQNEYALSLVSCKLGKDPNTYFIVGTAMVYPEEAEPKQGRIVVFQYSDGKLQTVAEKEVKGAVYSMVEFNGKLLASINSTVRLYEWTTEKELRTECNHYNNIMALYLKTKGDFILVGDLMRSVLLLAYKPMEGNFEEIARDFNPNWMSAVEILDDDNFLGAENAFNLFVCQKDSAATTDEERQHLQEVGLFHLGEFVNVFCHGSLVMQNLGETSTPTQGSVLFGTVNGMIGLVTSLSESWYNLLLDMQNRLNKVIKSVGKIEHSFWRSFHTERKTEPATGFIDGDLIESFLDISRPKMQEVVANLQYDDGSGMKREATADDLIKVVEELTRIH
T3 sequence (Q9NYV4 whole entry): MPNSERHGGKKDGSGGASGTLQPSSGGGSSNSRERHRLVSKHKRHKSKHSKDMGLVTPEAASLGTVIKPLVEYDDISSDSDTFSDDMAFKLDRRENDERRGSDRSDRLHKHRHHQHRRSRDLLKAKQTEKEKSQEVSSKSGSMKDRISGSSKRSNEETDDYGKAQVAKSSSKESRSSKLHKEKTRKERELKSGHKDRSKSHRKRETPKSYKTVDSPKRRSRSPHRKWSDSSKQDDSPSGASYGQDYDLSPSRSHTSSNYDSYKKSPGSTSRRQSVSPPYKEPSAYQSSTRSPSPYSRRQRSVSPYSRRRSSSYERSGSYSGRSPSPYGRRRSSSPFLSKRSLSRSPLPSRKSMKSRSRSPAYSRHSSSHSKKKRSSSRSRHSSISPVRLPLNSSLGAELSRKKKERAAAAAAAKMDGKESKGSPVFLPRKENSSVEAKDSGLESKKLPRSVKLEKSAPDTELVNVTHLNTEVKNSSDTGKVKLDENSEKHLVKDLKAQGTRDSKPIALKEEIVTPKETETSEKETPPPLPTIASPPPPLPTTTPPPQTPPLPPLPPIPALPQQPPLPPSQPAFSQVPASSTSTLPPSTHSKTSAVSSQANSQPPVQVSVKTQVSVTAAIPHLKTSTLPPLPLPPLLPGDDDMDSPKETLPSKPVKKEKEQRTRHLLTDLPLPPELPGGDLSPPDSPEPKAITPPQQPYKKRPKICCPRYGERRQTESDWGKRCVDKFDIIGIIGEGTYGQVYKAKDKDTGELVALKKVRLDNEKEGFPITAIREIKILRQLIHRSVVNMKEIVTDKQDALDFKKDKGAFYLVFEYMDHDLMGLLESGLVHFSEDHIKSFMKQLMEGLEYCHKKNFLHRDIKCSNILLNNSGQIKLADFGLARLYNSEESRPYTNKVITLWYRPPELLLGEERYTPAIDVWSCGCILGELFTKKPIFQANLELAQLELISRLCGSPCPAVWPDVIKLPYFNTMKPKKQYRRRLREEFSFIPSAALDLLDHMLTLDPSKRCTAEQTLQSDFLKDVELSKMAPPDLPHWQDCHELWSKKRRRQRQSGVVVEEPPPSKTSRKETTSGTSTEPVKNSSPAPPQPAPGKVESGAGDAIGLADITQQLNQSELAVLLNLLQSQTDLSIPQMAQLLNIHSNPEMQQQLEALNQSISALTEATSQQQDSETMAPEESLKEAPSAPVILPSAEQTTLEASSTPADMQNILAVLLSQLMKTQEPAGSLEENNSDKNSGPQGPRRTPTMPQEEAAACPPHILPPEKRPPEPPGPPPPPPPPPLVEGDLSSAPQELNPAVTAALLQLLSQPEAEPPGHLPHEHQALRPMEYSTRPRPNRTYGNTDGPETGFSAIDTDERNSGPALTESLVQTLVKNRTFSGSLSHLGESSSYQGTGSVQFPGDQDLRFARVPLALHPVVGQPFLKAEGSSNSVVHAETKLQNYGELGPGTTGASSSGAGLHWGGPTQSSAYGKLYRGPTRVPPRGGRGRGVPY
T3 sequence (O75909 whole entry partner): as the sequence (O75909 whole entry partner) above
T3 sequence (Q16531 2-1140 limits assumed): as the sequence (Q16531 2-1140 limits assumed) above

Structure (SMILES) | CDK13 peptide count (CDK13) | CDK13 peptide count (DMSO-normalised) (CDK13) | cyclin K depletion, result in words (cyclin K) | cyclin K abundance (label-free MS) (cyclin K; [1]) | cyclin K abundance (label-free MS) (cyclin K; [2]) | CCNK peptide count (DMSO-normalised) (cyclin K) | average CCNK peptide count (cyclin K; sheet EDF7) | EC50 (CDK12–cyclin K and DDB1; [3]) | EC50 (CDK12–cyclin K and DDB1; [4]) | EC50 (CDK12–cyclin K and DDB1; [5]) | CDK12 peptide count (CDK12) | CDK12 peptide count (DMSO-normalised) (CDK12) | TR-FRET signal (CDK12–cyclin K and DDB1; [6]) | TR-FRET signal (CDK12–cyclin K and DDB1; compound concentration 2.16 nM) | TR-FRET signal (CDK12–cyclin K and DDB1; compound concentration 3.6 nM) | TR-FRET signal (CDK12–cyclin K and DDB1; [7]) | TR-FRET signal (CDK12–cyclin K and DDB1; [8]) | TR-FRET signal (CDK12–cyclin K and DDB1; [9]) | TR-FRET signal (CDK12–cyclin K and DDB1; [10]) | TR-FRET signal (CDK12–cyclin K and DDB1; [11]) | also measured
CC[C@H](CO)Nc1nc(NCc2nc3cc(Cl)c(Cl)cc3[nH]2)c2ncn(C(C)C)c2n1 [DS17] | 156.014 and 130.628 | 0.2321 and 0.2007 | more effective at depleting cyclin K than CR8 | 47.1483 and 71.6427 | 47.1483 and 71.6427 | 0.02576 and 0.03985 | 59.3955 | 13 ± 0.3 nM | 13.2 nM | 13.2 nM | 546.795 and 667.348 | 0.6075 and 0.6893 | – | – | – | – | – | – | – | – | TR-FRET signal at compound concentration 0.468 nM (CDK12–cyclin K and DDB1; compound concentration 0.468 nM, raw replicate titration data): 0.2691 and 0.2681 and 0.2563 and 0.2452; TR-FRET signal at compound concentration 2.16 nM (CDK12–cyclin K and DDB1; compound concentration 2.16 nM, raw replicate titration data): 0.3644 and 0.3794 and 0.3582 and 0.3855; TR-FRET signal at compound concentration 3.6 nM (CDK12–cyclin K and DDB1; compound concentration 3.6 nM, raw replicate titration data): 0.5749 and 0.6382 and 0.6238 and 0.6481; TR-FRET signal at compound concentration 7.92001 nM (CDK12–cyclin K and DDB1; compound concentration 7.92001 nM, raw replicate titration data): 1.103 and 1.253 and 1.275 and 1.336; TR-FRET signal at compound concentration 15.84 nM (CDK12–cyclin K and DDB1; compound concentration 15.84 nM, raw replicate titration data): 2.342 and 2.592 and 2.673 and 2.949; TR-FRET signal at compound concentration 30.96 nM (CDK12–cyclin K and DDB1; compound concentration 30.96 nM, raw replicate titration data): 3.985 and 4.064 and 4.264 and 4.269; TR-FRET signal at compound concentration 62.6401 nM (CDK12–cyclin K and DDB1; compound concentration 62.6401 nM, raw replicate titration data): 4.135 and 4.141 and 4.254 and 4.343; TR-FRET signal at compound concentration 125.28 nM (CDK12–cyclin K and DDB1; compound concentration 125.28 nM, raw replicate titration data): 4.238 and 4.311 and 4.291 and 4.347; TR-FRET signal at compound concentration 244.8 nM (CDK12–cyclin K and DDB1; compound concentration 244.8 nM, raw replicate titration data): 4.1978 and 4.255 and 4.25 and 4.345; TR-FRET signal at compound concentration 993.601 nM (CDK12–cyclin K and DDB1; compound concentration 993.601 nM, raw replicate titration data): 4.229 and 4.264 and 4.321 and 4.299; TR-FRET signal at compound concentration 2001.6 nM (CDK12–cyclin K and DDB1; compound concentration 2001.6 nM, raw replicate titration data): 4.223 and 4.116 and 4.3288 and 4.427
CC(C)c1nn(-c2c(Cl)cccc2Cl)c2nc(Cc3ccc(OCCO)cc3)[nH]c(=O)c12 [compound 21195] | 262.248 and 170.145 | 0.3901 and 0.2615 | more effective at depleting cyclin K than CR8 | – | – | 0.03019 and 0.03114 | 55.6218 | 12 ± 0.4 nM | 12 nM | 12 nM | 493.905 and 565.93 | 0.5487 and 0.5845 | 0.2628 and 0.2699 and 0.216 and 0.239 and 0.2342 and 0.2245 | 0.3464 and 0.3831 and 0.355 and 0.3843 and 0.3684 and 0.3664 | 0.5968 and 0.6945 and 0.6556 and 0.7072 and 0.6869 and 0.6829 | 1.121 and 1.282 and 1.315 and 1.383 and 1.34 and 1.348 | 1.693 and 2.27 and 2.427 and 2.5504 and 2.497 | 2.9489 and 3.238 and 3.271 and 3.348 and 3.319 and 3.3062 | 3.288 and 3.494 and 3.577 and 3.452 and 3.519 and 3.526 | 3.346 and 3.624 and 3.589 and 3.472 and 3.591 and 3.561 | CCNK peptide count (cyclin K; [1]): 55.265 and 55.9786; CCNK peptide count (cyclin K; [2]): 55.265 and 55.9786; TR-FRET signal (CDK12–cyclin K and DDB1; [12]): 3.392 and 3.7057 and 3.68 and 3.58 and 3.638 and 3.662; TR-FRET signal (CDK12–cyclin K and DDB1; [13]): 3.425 and 3.678 and 3.687 and 3.61 and 3.695 and 3.669; TR-FRET signal (CDK12–cyclin K and DDB1; [14]): 3.544 and 3.666 and 3.468 and 3.558 and 3.691 and 3.74
Cc1cccc(Nc2nc(CC(=O)Nc3ncc(C)s3)cs2)n1 [HQ461] | 467.381 and 369.821 | 0.6953 and 0.5683 | – | 622.336 and 691.814 | 622.336 and 691.814 | 0.34 and 0.3848 | 657.075 | 43 ± 13 nM | 42.7 nM | 42.7 nM | 703.981 and 744.171 | 0.7821 and 0.7686 | 0.1979 and 0.1985 and 0.1957 | 0.2749 and 0.2453 and 0.2785 | 0.4419 and 0.4117 and 0.4333 and 0.5417 and 0.5175 | 0.7305 and 0.6786 and 0.7304 | 1.213 and 1.144 and 1.137 and 1.215 and 1.133 | 1.762 and 1.75 and 1.847 | 2.4486 and 2.52 and 2.516 and 2.475 and 2.32 | 3.077 and 3.1244 and 3.038 | TR-FRET signal (CDK12–cyclin K and DDB1; [12]): 3.496 and 3.492 and 3.484 and 3.752 and 3.554; TR-FRET signal (CDK12–cyclin K and DDB1; [13]): 3.886 and 3.922 and 3.8902 and 4.115 and 3.832; TR-FRET signal (CDK12–cyclin K and DDB1; [14]): 3.927 and 3.936 and 3.967 and 4.085 and 3.674
